From PubChem BioAssay (NCI)
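Exposure lasted 48 hours, with cells grown in 96-well plates and compounds tested at five concentrations. The concentration for 50% growth inhibition is given as GI50. At the TGI there is no net growth.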

How the values were obtained:
Experiment in all cases: DTP human tumour cell line panel, 48 h
OVCAR-4 ovarian = system: OVCAR-4 ovarian
ACHN renal = system: ACHN renal
M14 melanoma = system: M14 melanoma
UACC-257 melanoma = system: UACC-257 melanoma
SR leukemia = system: SR leukemia
HCT-116 colon = system: HCT-116 colon
SN12C renal = system: SN12C renal
NCI-H460 lung = system: NCI-H460 lung
HOP-92 NSCLC = system: HOP-92 NSCLC
MDA-MB-435 = system: MDA-MB-435
LOX IMVI melanoma = system: LOX IMVI melanoma
MDA-MB-231 breast = system: MDA-MB-231 breast
T-47D breast = system: T-47D breast
DU-145 prostate = system: DU-145 prostate

Row | Compound | TGI (OVCAR-4 ovarian) [µM] | TGI (ACHN renal) [µM] | TGI (M14 melanoma) [µM] | TGI (UACC-257 melanoma) [µM] | TGI (SR leukemia) [µM] | TGI (HCT-116 colon) [µM] | TGI (SN12C renal) [µM] | TGI (NCI-H460 lung) [µM] | TGI (HOP-92 NSCLC) [µM] | TGI (MDA-MB-435) [µM] | TGI (LOX IMVI melanoma) [µM] | TGI (MDA-MB-231 breast) [µM] | TGI (T-47D breast) [µM] | TGI (DU-145 prostate) [µM] | GI50 (MDA-MB-435) [µM] | GI50 (M14 melanoma) [µM] | GI50 (MDA-MB-231 breast) [µM] | GI50 (SN12C renal) [µM] | GI50 (DU-145 prostate) [µM] | GI50 (HOP-92 NSCLC) [µM]
1 | CC(C)C1=CC(=O)C(C)(C2=NC(C)(C)CO2)c2ccccc21 (stereo unspecified) | > 100 | > 100 | > 100 | > 100 | > 100 | > 100 | > 100 | > 100 | > 100 |  |  |  |  |  |  |  |  |  |  | 
2 | C=C(CO)[C@H]1CC/C(C)=C/CC/C(C)=C/C/C=C(\C)[C@H](O)C1 | > 100 | 69.7 |  | 39.7 |  | > 100 | 81.7 | 62.7 | 39.5 | 35.8 | 73.8 | 56.6 | > 100 | > 100 |  |  |  |  |  | 
3 | Cc1cccc(NC(=O)CSc2nnc(Cc3ccccc3)o2)c1 | > 100 | > 100 | > 100 | > 100 |  | > 100 | > 100 | > 100 |  |  | > 100 |  |  |  |  |  |  |  |  | 
4 | CC[N+](CC)(CC)Cc1cn(S(=O)(=O)c2ccccc2)c2ccccc12 | > 100 | > 100 | > 100 | > 100 | > 100 | > 100 |  | > 100 | > 100 |  |  |  |  |  |  |  |  |  |  | 
5 | O=C(/C=C/c1c(O)c2ccccc2[nH]c1=O)CC(=O)C(=O)Nc1cccc(O)c1 | > 100 | > 100 | > 100 | > 100 |  | > 100 | > 100 | > 100 | > 100 | > 100 | > 100 | > 100 | > 100 | > 100 |  |  |  |  |  | 
6 | Cn1c(=S)[nH]c2c(Cl)cc(Cl)cc2c1=O | > 100 | > 100 | > 100 | > 100 |  | > 100 | > 100 | > 100 | > 100 | > 100 | > 100 | > 100 |  | > 100 |  |  |  |  |  | 
7 | Cc1c(C(=O)Nc2ccc(Cl)c(C(F)(F)F)c2)oc2cc(O)ccc2/c1=N\NC(N)=S | > 100 | > 100 | > 100 | > 100 | > 100 | > 100 | > 100 | > 100 |  |  | > 100 |  |  |  |  |  |  |  |  | 
8 | O=c1oc2ccccc2c(O)c1C(c1ccc2ccccc2c1)c1c(O)c2ccccc2oc1=O | > 100 | 41.7 | 73.2 | > 100 |  | > 100 | 45.3 | 73.2 | > 100 | 59.7 | > 100 | 47.1 | > 100 | > 100 |  |  |  |  |  | 
9 | Cc1cc(Cl)ccc1NC(=O)/C(CC(=O)CC(c1ccccc1)c1c(O)c2ccccc2oc1=O)=N\O (stereo unspecified) | > 100 | > 100 | > 100 | > 100 |  | > 100 | > 100 | > 100 | > 100 | > 100 | > 100 | > 100 |  | > 100 |  |  |  |  |  | 
10 | Cc1cc(C)n(C(=O)C(C)Sc2nnc(SC(C)C(=O)n3nc(C)cc3C)s2)n1 (stereo unspecified) | > 100 | > 100 | > 100 | > 100 | > 100 | > 100 |  | > 100 | > 100 | > 100 | > 100 | > 100 |  | > 100 |  |  |  |  |  | 
11 | CC(=O)/C(=C/N1C(=O)CC(=O)NC1=S)C(=O)Nc1ccccc1C | > 100 | > 100 | > 100 | > 100 |  | > 100 | > 100 | > 100 | > 100 | > 100 | > 100 | > 100 | > 100 | > 100 |  |  |  |  |  | 
12 | CCOC(=O)C1C(C(C)C)C2(C#N)C(=N)OC1(C)C2(C#N)C#N (stereo unspecified) |  | > 100 | > 100 | > 100 |  | > 100 | > 100 |  | > 100 | > 100 | > 100 | > 100 | > 100 | > 100 |  |  |  |  |  | 
13 | CO[C@H]1C[C@@H]2CC[C@@H](C)[C@@](O)(O2)C(=O)C(=O)N2CCCC[C@H]2C(=O)O[C@H]([C@H](C)C[C@@H]2CC[C@@H](OC(=O)C(C)(CO)CO)[C@H](OC)C2)CC(=O)[C@H](C)/C=C(\C)[C@@H](O)[C@@H](OC)C(=O)[C@H](C)C[C@H](C)/C=C/C=C/C=C/1C |  | > 100 | > 100 | 51.5 |  | > 100 | > 71.3 |  |  | > 100 | > 75.9 | 31.2 | > 100 | > 100 | 2.5 | 16 | 2.62 | 0.497 | 0.0379 | 1.58
14 | NC(=S)Nc1nnc(-c2ccc(-c3nnc(NC(N)=S)o3)cc2)o1 | > 100 | > 100 | > 100 | > 100 |  | > 100 | > 100 | > 100 | > 100 |  | > 100 |  |  |  |  |  |  |  |  | 
15 | NC(=Nc1ccc(Cl)c(Cl)c1)c1ccccc1N | > 100 | > 100 | 41.4 | 92.7 |  | 57.1 |  | > 100 | 8.47 | 42.2 | 69.3 | > 100 |  | > 100 |  |  |  |  |  | 
16 | Cc1nc2c(s/c(=N\N)n2-c2ccccc2)c(=O)[nH]1 | > 100 | > 100 | > 100 | > 100 | > 100 | > 100 | > 100 | > 100 | > 100 |  | > 100 |  |  |  |  |  |  |  |  | 
17 | CC1=C(N(C)C)C(=O)c2nc3n(c2C1=O)CCC3OC(N)=O (stereo unspecified) | 34.7 | 30.4 | 27.4 | 27.6 | > 100 | 28.8 | 28.8 | 30.4 | 28.2 |  | 25.7 |  |  |  |  |  |  |  |  | 
18 | N=c1oc2cc(O)c(O)cc2cc1C(N)=O | > 100 | > 100 | > 100 | > 100 |  | > 100 | > 100 | > 100 | > 100 |  | > 100 |  |  |  |  |  |  |  |  | 
19 | C1=Cc2nc1c(-c1ccccc1)c1ccc([n-]1)c(-c1ccccc1)c1nc(c(-c3ccccc3)c3ccc([n-]3)c2-c2ccccc2)C=C1.[Zn+2] | > 100 | > 100 | > 100 | > 100 |  | > 100 | > 100 | > 100 | > 100 |  | > 100 |  |  |  |  |  |  |  |  | 
